Reference: patent publication US9889099B2, “Method and composition for enhancing milk production” (LAND O'LAKES, INC., priority 1999, dated 2018)
Marks after values point to notes of the source that are not given here.

Assays:
[1] = Passage of orally fed sorbitol through the rumen into the abomasum; assay type: in vivo, ruminant; conditions: within about six to about eight hours after entering the rumen; based on total amount orally fed
[2] = tested on: lactating cows; experiment: Example 2: 3x3 Latin square feeding of lactating cows, control ration plus about 50 or 100 g sorbitol per day; assay type: in vivo, Holstein cows; conditions: for Milk Protein / Lactose / Total Solids / Dry Matter Intake / Milk Production: last 14 of 28 days
Source text: In this example, fifteen Holstein cows (nine multiparous and six primiparous) averaging about sixty-five days in milk each, and thus in early lactation, were arranged in a 3×3 Latin square design, also known as the switch back design, that was replicated five times. Each cow was randomly allotted to the control ration treatment, to the first test ration treatment, or to the second test ration treatment. In the 3×3 Latin square design, each cow is cycled through each treatment, namely, the control ration treatment, the first test ration treatment, and the second test ration treatment. This permits each cow to act as a control for standardizing the testing differences observed between each treatment for each cow. Sufficient time between feeding treatments (between the control ration treatment, the first ration test treatment, and the second test ration treatment) was allowed to permit normalization of each cow before being switched to a different treatment. The cows were blocked by parity milk production, based upon the level of milk production by individual cows, after being in milk for forty-five days. After being blocked by parity milk production, the cows were randomly allotted to the control ration feeding, the first test ration feeding, or the second test ration feeding. The components of the control ration used in this example are shown in Table 5: The control ration was placed in the feeding troughs of the cattle once daily in the morning. When the first test ration was to be provided to the test cattle, sorbitol was top dressed and lightly mixed into the control ration in the feeding trough of each cow being supplied with the first test ration dosage of about 50 grams of sorbitol per cow per day, about one hour after the control ration was placed in the feeding trough. When the second test ration was to be provided to the test cattle, sorbitol was top dressed and lightly mixed into the control ration in the feeding trough of each cow being supplied with the second test ration dosage of about 100 grams of sorbitol per cow per day, about one hour after the control ration was placed in the feeding trough. Then, the control ration, the first test ration, and the second test ration were lightly mixed in front of the cows six times per day to encourage additional feed ingestion by the cattle. Leftover rations from the previous days feeding were collected and weighed from each feeding trough prior to feeding the test cattle the next day. The cows received a sufficient amount of the control ration to ensure that at least about ten weight percent, based upon the amount of control ration provided at the beginning of each day, remained per day for each test cow. The amount of sorbitol that was top dressed in the control ration to form the first test ration was adjusted upward to account for the excess of control ration provided to ensure that the cows ingested the first test ration dosage of about 50 grams of sorbitol per cow per day. Likewise, the amount of sorbitol that was top dressed in the control ration to form the second test ration was adjusted upward to account for the excess of control ration provided to ensure that the cows ingested the second test ration dosage of about 100 grams of sorbitol per cow per day. Feed refusals were measured daily, and water was supplied ad libitum. Each test cow received routine care and management consistent with appropriate recommendations in the Guide for the Care and Use of Agricultural Animals in Agricultural Research and Teaching (1st edition, March 1988). Each cow was milked three times daily and the weight of produced milk was recorded at each milking. The milk was sampled once per day (⅓ of the sample volume from each milking) and was analyzed for protein, fat, lactose, and total solids, in accordance with the property determination and characterization techniques presented above. […]

OC[C@@H](O)[C@@H](O)[C@H](O)[C@@H](O)CO [sorbitol]
share of orally fed sugar alcohol passing through the rumen into the abomasum [1]: at least 50 weight percent | Milk Protein ([2]; about 50 g sorbitol/day/cow, Block 1, control 2.23, P >0.10): 2.22 pounds/day/cow | Lactose ([2]; about 50 g sorbitol/day/cow, Block 1, control 3.99, P >0.10): 4.10 pounds/day/cow | Total Solids ([2]; about 50 g sorbitol/day/cow, Block 1, control 9.51, P >0.10): 9.77 pounds/day/cow | Dry Matter Intake ([2]; about 50 g sorbitol/day/cow, Block 1, control 45.0, P >0.10): 44.2 pounds/day/cow | Milk Protein ([2]; about 50 g sorbitol/day/cow, Block 2, control 2.13, P >0.10): 2.18 pounds/day/cow | Lactose ([2]; about 50 g sorbitol/day/cow, Block 2, control 3.72, P 0.07): 3.89^b pounds/day/cow | Total Solids ([2]; about 50 g sorbitol/day/cow, Block 2, control 8.95, P >0.10): 9.48 pounds/day/cow | Dry Matter Intake ([2]; about 50 g sorbitol/day/cow, Block 2, control 42.9, P 0.04): 45.3^b pounds/day/cow | Milk Production ([2]; about 50 g sorbitol/day/cow, Block 2, control 75.3, P 0.10): 78.0^b pounds/day/cow | Milk Protein ([2]; about 50 g sorbitol/day/cow, Block 3, control 2.62, P >0.10): 2.89 pounds/day/cow | Lactose ([2]; about 50 g sorbitol/day/cow, Block 3, control 4.32, P >0.10): 4.84 pounds/day/cow | Total Solids ([2]; about 50 g sorbitol/day/cow, Block 3, control 10.70, P >0.10): 11.53 pounds/day/cow | Dry Matter Intake ([2]; about 50 g sorbitol/day/cow, Block 3, control 54.4, P 0.10): 60.7^b pounds/day/cow | Milk Production ([2]; about 50 g sorbitol/day/cow, Block 3, control 89.0, P 0.28): 98.8 pounds/day/cow | Milk Protein ([2]; about 50 g sorbitol/day/cow, Block 4, control 2.83, P 0.08): 3.18^b pounds/day/cow | Lactose ([2]; about 50 g sorbitol/day/cow, Block 4, control 4.56, P 0.06): 4.88^b pounds/day/cow | Total Solids ([2]; about 50 g sorbitol/day/cow, Block 4, control 11.46, P 0.09): 12.35^b pounds/day/cow | Dry Matter Intake ([2]; about 50 g sorbitol/day/cow, Block 4, control 61.0, P >0.10): 62.6 pounds/day/cow | Milk Production ([2]; about 50 g sorbitol/day/cow, Block 4, control 97.6, P 0.07): 102.9^b pounds/day/cow | Milk Protein ([2]; about 50 g sorbitol/day/cow, Block 5, control 3.35, P >0.10): 3.39 pounds/day/cow | Lactose ([2]; about 50 g sorbitol/day/cow, Block 5, control 5.70, P 0.05): 5.86^b pounds/day/cow | Total Solids ([2]; about 50 g sorbitol/day/cow, Block 5, control 13.46, P >0.10): 13.83 pounds/day/cow | Dry Matter Intake ([2]; about 50 g sorbitol/day/cow, Block 5, control 65.1, P >0.10): 66.6 pounds/day/cow | Milk Production ([2]; about 50 g sorbitol/day/cow, Block 5, control 119.1, P 0.10): 122.4^b pounds/day/cow | Milk Protein ([2]; about 50 g sorbitol/day/cow, all cows, control 2.63, P >0.10): 2.77 pounds/day/cow | Lactose ([2]; about 50 g sorbitol/day/cow, all cows, control 4.46, P 0.04): 4.71^b pounds/day/cow | Total Solids ([2]; about 50 g sorbitol/day/cow, all cows, control 10.82, P 0.07): 11.39^b pounds/day/cow | Dry Matter Intake ([2]; about 50 g sorbitol/day/cow, all cows, control 53.7, P 0.05): 55.9^b pounds/day/cow | Milk Production ([2]; about 50 g sorbitol/day/cow, all cows, control 92.9, P 0.05): 97.5^b pounds/day/cow | Milk Protein ([2]; about 50 g sorbitol/day/cow, multiparous cows only, control 2.93, P 0.08): 3.15^b pounds/day/cow | Lactose ([2]; about 50 g sorbitol/day/cow, multiparous cows only, control 4.86, P 0.07): 5.19^b pounds/day/cow | Total Solids ([2]; about 50 g sorbitol/day/cow, multiparous cows only, control 11.87, P >0.10): 12.57 pounds/day/cow | Dry Matter Intake ([2]; about 50 g sorbitol/day/cow, multiparous cows only, control 60.2, P 0.09): 63.3^b pounds/day/cow | Milk Production ([2]; about 50 g sorbitol/day/cow, multiparous cows only, control 101.9, P 0.07): 108.0^b pounds/day/cow | Milk Protein ([2]; about 50 g sorbitol/day/cow, primiparous cows only, control 2.18, P >0.10): 2.20 pounds/day/cow | Lactose ([2]; about 50 g sorbitol/day/cow, primiparous cows only, control 3.85, P >0.10): 3.99 pounds/day/cow | Total Solids ([2]; about 50 g sorbitol/day/cow, primiparous cows only, control 9.23, P >0.10): 9.63 pounds/day/cow | Dry Matter Intake ([2]; about 50 g sorbitol/day/cow, primiparous cows only, control 44.0, P >0.10): 44.7 pounds/day/cow | Milk Production ([2]; about 50 g sorbitol/day/cow, primiparous cows only, control 79.5, P >0.10): 81.8 pounds/day/cow | Milk Protein ([2]; about 100 g sorbitol/day/cow, Block 1, control 2.23, P >0.10): 2.19 pounds/day/cow | Lactose ([2]; about 100 g sorbitol/day/cow, Block 1, control 3.99, P >0.10): 4.07 pounds/day/cow | Total Solids ([2]; about 100 g sorbitol/day/cow, Block 1, control 9.51, P >0.10): 9.94 pounds/day/cow | Dry Matter Intake ([2]; about 100 g sorbitol/day/cow, Block 1, control 45.0, P >0.10): 44.4 pounds/day/cow | Milk Production ([2]; about 100 g sorbitol/day/cow, Block 1, control 83.7, P >0.10): 85.2 pounds/day/cow | Milk Protein ([2]; about 100 g sorbitol/day/cow, Block 2, control 2.13, P >0.10): 2.12 pounds/day/cow | Lactose ([2]; about 100 g sorbitol/day/cow, Block 2, control 3.72, P 0.07): 3.82^ab pounds/day/cow | Total Solids ([2]; about 100 g sorbitol/day/cow, Block 2, control 8.95, P >0.10): 9.29 pounds/day/cow | Dry Matter Intake ([2]; about 100 g sorbitol/day/cow, Block 2, control 42.9, P 0.04): 42.6^ab pounds/day/cow | Milk Production ([2]; about 100 g sorbitol/day/cow, Block 2, control 75.3, P 0.10): 77.1^ab pounds/day/cow | Milk Protein ([2]; about 100 g sorbitol/day/cow, Block 3, control 2.62, P >0.10): 2.85 pounds/day/cow | Lactose ([2]; about 100 g sorbitol/day/cow, Block 3, control 4.32, P >0.10): 4.86 pounds/day/cow | Total Solids ([2]; about 100 g sorbitol/day/cow, Block 3, control 10.70, P >0.10): 11.62 pounds/day/cow | Dry Matter Intake ([2]; about 100 g sorbitol/day/cow, Block 3, control 54.4, P 0.10): 60.1^ab pounds/day/cow | Milk Production ([2]; about 100 g sorbitol/day/cow, Block 3, control 89.0, P 0.28): 99.0 pounds/day/cow | Milk Protein ([2]; about 100 g sorbitol/day/cow, Block 4, control 2.83, P 0.08): 3.01^ab pounds/day/cow | Lactose ([2]; about 100 g sorbitol/day/cow, Block 4, control 4.56, P 0.06): 4.57^ab pounds/day/cow | Total Solids ([2]; about 100 g sorbitol/day/cow, Block 4, control 11.46, P 0.09): 11.01^ab pounds/day/cow | Dry Matter Intake ([2]; about 100 g sorbitol/day/cow, Block 4, control 61.0, P >0.10): 61.2 pounds/day/cow | Milk Production ([2]; about 100 g sorbitol/day/cow, Block 4, control 97.6, P 0.07): 95.9^ab pounds/day/cow | Milk Protein ([2]; about 100 g sorbitol/day/cow, Block 5, control 3.35, P >0.10): 3.36 pounds/day/cow | Lactose ([2]; about 100 g sorbitol/day/cow, Block 5, control 5.70, P 0.05): 5.78^ab pounds/day/cow | Total Solids ([2]; about 100 g sorbitol/day/cow, Block 5, control 13.46, P >0.10): 13.78 pounds/day/cow | Dry Matter Intake ([2]; about 100 g sorbitol/day/cow, Block 5, control 65.1, P >0.10): 65.8 pounds/day/cow | Milk Production ([2]; about 100 g sorbitol/day/cow, Block 5, control 119.1, P 0.10): 121.0^ab pounds/day/cow | Milk Protein ([2]; about 100 g sorbitol/day/cow, all cows, control 2.63, P >0.10): 2.71 pounds/day/cow | Lactose ([2]; about 100 g sorbitol/day/cow, all cows, control 4.46, P 0.04): 4.62^ab pounds/day/cow | Total Solids ([2]; about 100 g sorbitol/day/cow, all cows, control 10.82, P 0.07): 11.12^ab pounds/day/cow | Dry Matter Intake ([2]; about 100 g sorbitol/day/cow, all cows, control 53.7, P 0.05): 54.8^ab pounds/day/cow | Milk Production ([2]; about 100 g sorbitol/day/cow, all cows, control 92.9, P 0.05): 95.6^ab pounds/day/cow | Milk Protein ([2]; about 100 g sorbitol/day/cow, multiparous cows only, control 2.93, P 0.08): 3.07^ab pounds/day/cow | Lactose ([2]; about 100 g sorbitol/day/cow, multiparous cows only, control 4.86, P 0.07): 5.07^ab pounds/day/cow | Total Solids ([2]; about 100 g sorbitol/day/cow, multiparous cows only, control 11.87, P >0.10): 12.13 pounds/day/cow | Dry Matter Intake ([2]; about 100 g sorbitol/day/cow, multiparous cows only, control 60.2, P 0.09): 62.3^ab pounds/day/cow | Milk Production ([2]; about 100 g sorbitol/day/cow, multiparous cows only, control 101.9, P 0.07): 105.3^ab pounds/day/cow | Milk Protein ([2]; about 100 g sorbitol/day/cow, primiparous cows only, control 2.18, P >0.10): 2.16 pounds/day/cow | Lactose ([2]; about 100 g sorbitol/day/cow, primiparous cows only, control 3.85, P >0.10): 3.95 pounds/day/cow | Total Solids ([2]; about 100 g sorbitol/day/cow, primiparous cows only, control 9.23, P >0.10): 9.62 pounds/day/cow | Dry Matter Intake ([2]; about 100 g sorbitol/day/cow, primiparous cows only, control 44.0, P >0.10): 43.5 pounds/day/cow | Milk Production ([2]; about 100 g sorbitol/day/cow, primiparous cows only, control 79.5, P >0.10): 81.2 pounds/day/cow | improvement of milk production rate versus cows fed only the control ration ([2]; first test ration, about 50 g sorbitol per day, all cows): 4.6 pounds per day per cow | improvement of milk production rate versus cows fed only the control ration ([2]; second test ration, about 100 g sorbitol per day, all cows): 2.7 pounds per day per cow
